In patent US20160106711A1, “3-3-Di-Substituted-Oxindoles as Inhibitors of Translation Initiation” (President and Fellows of Harvard College, priority 2012, published 2016):

Columns and labels:
[1] = system: KLN; assay: Cell growth assay (sulforhodamine B), KLN cells; format: cell-based, mouse; conditions: Mus musculus, 120 h, 5 days, SRB
Procedure: […] Plates were then incubated with 0.4% SRB in 1% acetic acid for 1 h, washed with 1% acetic acid to remove the unbound dye, and air-dried. The bound dye was solubilized by addition of 10 mM Tris (pH 10), and the absorbance was determined in a Titertek Multiscan plate reader at 490 nm. The data calculations were carried out as described (the values for mean±SD of data from replicate wells are calculated): data are expressed in terms of % T/C [(OD of treated cells/OD of control cells)×100], as a measure of cell viability and survival in the presence of test materials. Calculations are also made for the concentration of test agents giving a T/C value of 50%, or 50% growth inhibition (IC50). With the SRB assay, a measure is made of the cell population density at time 0 (the time at which drugs are added) from two extra reference plates of inoculated cells fixed with TCA just prior to drug addition to the test plates. Thus, we have three measurements: control optical density (C), test optical density (T), and optical density at time zero (T0). The calculation is 100×[(T−T0)/(C−T0)]. If T is less than T0, cell killing has occurred and can be calculated from 100×[(T−T0)/T0]. Thus, for each drug-cell line combination, a dose-response curve is generated and three levels of effect are calculated.

[2] = system: eIF2•GTP•Met-tRNAi ternary complex; assay: Ternary complex assay (ATF-4 assay), dual luciferase firefly/renilla ratio; format: cell-based, mouse; conditions: Mus musculus; for maximal fold induction at 40 µM: read-out: ATF-4 Xmax @ 40 μM
Excerpt: For assay development, a bi-directional plasmid was designed in which a common promoter/enhancer complex drives the transcription of firefly luciferase (F-luc) ORF fused to the 5′ untranslated region (UTR) of ATF-4, and of the renilla luciferase (R-luc) ORF fused to a 90-nucleotide 5′ UTR derived from the plasmid (FIG. 6A). Because the tetracycline-regulated transactivator ((tTA), required for driving transcription from this vector) is not normally expressed in the mammalian cells, stable KLN cancer cells were constructed that expressed tTA (KLN-tTA).
The KLN-tTA colonies that drove expression of reporter genes from pBISA-DL plasmid were selected by transient transfection and dual luciferase assay. One of these KLN-tTA cell lines was transfected with the pBISA-DL^(ATF-4) expression vector, stable colonies were selected by dual luciferase assay and expanded.
Plasmids and Ternary Complex Assay
(ATF-4 Assay). Briefly, bi-directional mammalian expression vector pBI (Clontech, CA) was modified to expand the multiple cloning sites (MCSs) and designated thereafter as pBISA. This vector contains seven copies of the tetracycline-regulated transactivator response element (TRE), which together act as core promoter/enhancer. The TRE is flanked on both sides by minimal human cytomegalovirus (CMV) minimal promoters allowing bi-directional transcription and two MCSs. Firefly and renilla luciferases were subcloned into MCS-I and MCS-II, respectively. This plasmid, designated pBISA-DL, transcribes two mRNAs that contain the 90 nucleotide plasmid derived 5′UTR (same sequence in both mRNAs), and the ORF encoding either firefly or renilla luciferase followed by a polyadenylation sequence as described in Ziegeler, G.; Ming, J.; Koseki, J. C.; Sevinc, S.; Chen, T.; Ergun, S.; Qin, X.; Aktas, B. H. J. Biol. Chem. 2010, 285, 15408 hereby incorporated by reference. This plasmid was further modified by inserting the 5′UTR of ATF-4 into MCS-I in front of the firefly luciferase mRNA. Transcription from this direction generates an mRNA that contains the firefly luciferase ORF preceded by a 5′UTR composed of 90 nucleotides derived from the plasmid and 267 nucleotides derived from the 5′UTR of ATF-4 mRNA. Transcription from the other direction generates an mRNA that contains the renilla luciferase ORF proceeded only by the 90-nucleotide plasmid-derived sequence in the 5′UTR. This expression plasmid is called pBISA-DL(ATF-4). In the dual luciferase assay, cells expressing firefly and renilla luciferases were lysed and the extracts assayed with a Dual-Glo Luciferase assay kit, per manufacturer's instruction (Promega Inc., Madison, Wis.). The data calculations were carried out as the ratio of firefly to renilla luciferase signal as described in Chen, T.; Ozel, D.; Qiao, Y.; Harbinski, F.; Chen, L.; Denoyelle, S.; He, X.; Zvereva, N.; Supko, J. G.; Chorev, M.; Halperin, J. A.; Aktas, B. H. Nat. Chem. Biol. 2011, 7, 610 hereby incorporated by reference.

[3] = system: CRL-2351; assay: Cell growth assay (sulforhodamine B), CRL-2351 cells; format: cell-based, human; conditions: Homo sapiens, 120 h, 5 days, SRB
Procedure: (§1) Adherent mouse (KLN) and human solid tumor cells (CRL-2351, and CRL-2813) were plated in 96-well plates and maintained for 5 days in the presence of 0.54 to 6 μM of individual compound, and cell proliferation was measured by the sulforhodamine B (SRB) assay as described in ref. 11: briefly, cells were fixed in 10% cold trichloroacetic acid at 4° C. for 1 h, extensively washed with double-distilled H2O and air-dried. Plates were then incubated with 0.4% SRB in 1% acetic acid for 1 h, washed with 1% acetic acid to remove the unbound dye, and air-dried. The bound dye was solubilized by addition of 10 mM Tris (pH 10), and the absorbance was determined in a Titertek Multiscan plate reader at 490 nm. The data calculations were carried out as described (the values for mean±SD of data from replicate wells are calculated): data are expressed in terms of % T/C [(OD of treated cells/OD of control cells)×100], as a measure of cell viability and survival in the presence of test materials. Calculations are also made for the concentration of test agents giving a T/C value of 50%, or 50% growth inhibition (IC50). With the SRB assay, a measure is made of the cell population density at time 0 (the time at which drugs are added) from two extra reference plates of inoculated cells fixed with TCA just prior to drug addition to the test plates. Thus, we have three measurements: control optical density (C), test optical density (T), and optical density at time zero (T0). The calculation is 100×[(T−T0)/(C−T0)]. If T is less than T0, cell killing has occurred and can be calculated from 100×[(T−T0)/T0]. Thus, for each drug-cell line combination, a dose-response curve is generated and three levels of effect are calculated.

[4] = system: CRL-2813; assay: Cell growth assay (sulforhodamine B), CRL-2813 cells; format: cell-based, human; conditions: Homo sapiens, CRL2813, 120 h, 5 days, SRB
Procedure: as §1

Row | Compound | IC50 [1] | maximal fold induction at 40 µM [2] | IC50 [3] | IC50 [4] | maximal fold induction at 20 µM ([2]; read-out: ATF-4 Xmax) | maximal fold induction at 80 µM ([2]; read-out: ATF-4 Xmax) | maximal fold induction at 10 µM ([2]; 10 uM, read-out: ATF-4 Xmax) | maximal fold induction at 5 µM ([2]; cell prints 5 (uM), read-out: ATF-4 Xmax) | maximal fold induction at 2.5 µM ([2]; 2.5 uM, read-out: ATF-4 Xmax)
1 | COc1ccc(C2(c3cc(C(C)(C)C)ccc3OCCN3CCOCC3)C(=O)Nc3ccc(OC)cc32)cc1 (stereo not shown) [Sd185, 3-{5-tert-butyl-2-[2-(morpholin-4-yl)ethoxy]phenyl}-5-methoxy-3-(4-methoxyphenyl)-indol-2-one] | 2.75 ± 0.3 µM | 3.92 ± 0.16 | 4.5 ± 0.7 µM | 2.9 ± 0.3 µM | – | – | – | – | –
2 | CC(C)(C)c1ccc(OCCN2CCOCC2)c(C2(c3cc(C(C)(C)C)ccc3OCCN3CCOCC3)C(=O)Nc3ccccc32)c1 [SD167] | > 20 µM | – | 1.68 ± 1.26 µM | 2.4 ± 0.1 µM | – | – | – | – | –
3 | CCCCc1ccc(O)c(C2(c3cc(CCCC)ccc3O)C(=O)Nc3ccccc32)c1 [HY048, 3,3-Bis(5-Butyl-2-Hydroxyphenyl)Indolin-2-One] | 14.3 ± 1.6 µM | – | 1.9 ± 0.5 µM | 3 µM | 5 ± 1.5 | – | – | – | –
4 | COc1ccc(OC)c(C2(c3cc(O)ccc3OC)C(=O)Nc3ccccc32)c1 (stereo not shown) [HY055] | 15.6 ± 0.4 µM | – | 9 µM | 9.7 ± 2 µM | – | 1.2 ± 0.6 | – | – | –
5 | CC(C)(C)c1ccc(OCCN2CCNCC2)c(C2(c3cc(C(C)(C)C)ccc3OCCN3CCNCC3)C(=O)Nc3ccccc32)c1 [HY401] | 10.6 ± 0.9 µM | 11.4 ± 0.65 | 0.8 ± 0.1 µM | 1.5 ± 0.9 µM | – | – | – | – | –
6 | CC(C)(C)c1ccc(O)c(C2(c3cc(C(C)(C)C)ccc3O)C(=O)Nc3ccccc32)c1 [HY021, 3,3-Bis(5-tert-Butyl-2-Hydroxyphenyl)Indolin-2-One] | 12 ± 0.7 µM | 4.4 | 2.8 ± 0.4 µM | 10.2 ± 1.2 µM | 10.6 | – | 5.2 ± 2.2 | – | –
7 | CC(C)(C)c1ccc(O)c(C2(c3cccnc3)C(=O)Nc3ccccc32)c1 (stereo not shown) [HY003, 3-(5-tert-Butyl-2-Hydroxyphenyl)-3-(Pyridin-3-yl)Indolin-2-One] | > 20 µM | – | 6.4 ± 3 µM | 11.5 ± 1.8 µM | – | 1.67 | – | – | –
8 | COc1ccc(C2(c3cc(C(C)(C)C)ccc3OCCN3CCOCC3)C(=O)Nc3ccc(OC(F)(F)F)cc32)cc1 (stereo not shown) [Sd225] | 9.3 ± 2.7 µM | 5.11 ± 0.48 | 2.9 ± 0.27 µM | 1.9 ± 0.7 µM | – | – | – | – | –
9 | COC(=O)c1cccc2c1NC(=O)C2(c1ccc(OC)cc1)c1cc(C(C)(C)C)ccc1OCCN1CCOCC1 (stereo not shown) [Sd203, Methyl 3-{5-tert-butyl-2-[2-(morpholin-4-yl)ethoxy]phenyl}-3-(4-methoxyphenyl)-2-oxoindole-7-carboxylate] | 17 ± 3.5 µM | – | 16.3 ± 1.6 µM | 14.6 ± 2.8 µM | – | – | – | 1.51 ± 0.3 | –
10 | COc1ccc(C2(c3cc(C(C)(C)C)ccc3O)C(=O)Nc3c2ccc(F)c3F)cc1 (stereo not shown) [Sd140] | 12.3 ± 2 µM | 1.2 ± 0.46 | 0.95 ± 0.08 µM | 3 µM | – | – | – | – | –
11 | CCCCc1ccc(O)c(C2(c3ccccc3)C(=O)Nc3ccccc32)c1 (stereo not shown) [Compound 1287, reference compound] | > 20 µM | – | 3.5 ± 0.1 µM | 2.8 ± 0.3 µM | – | – | – | – | –
12 | CC(C)(C)c1ccc(O)c(C2(c3ccc(O)cc3)C(=O)Nc3c2ccc(F)c3F)c1 (stereo not shown) [Sd141] | 15.3 ± 1.9 µM | 2.9 ± 0.6 | > 20 µM | 10.7 ± 3.9 µM | – | – | – | – | –
13 | CCN(CC)CCOc1ccc(C(C)(C)C)cc1C1(c2cc(C(C)(C)C)ccc2OCCN(CC)CC)C(=O)N(CCN(CC)CC)c2ccccc21 [HY296] | 1.6 ± 0.5 µM | – | 0.59 ± 0.26 µM | 0.72 ± 0.23 µM | – | – | – | – | 14.3 ± 0.78
14 | CC(C)(C)c1ccc(O)c(C2(c3cc(C(C)(C)C)ccc3OCCN3CCCC3)C(=O)N(CCN3CCCC3)c3ccccc32)c1 (stereo not shown) [HY093] | 4.1 ± 0.8 µM | 9 ± 1.7 | 3.6 ± 0.7 µM | 7.25 ± 1.6 µM | 2.21 ± 0.75 | – | – | – | –
15 | COc1ccc(C2(c3cc(C(C)(C)C)ccc3OCCN3CCOCC3)C(=O)Nc3ccccc32)cc1F (stereo not shown) [Sd205] | 3.4 ± 1.2 µM | – | 2.5 ± 0.6 µM | 2.7 ± 0.4 µM | – | 5.2 ± 2.1 | – | – | –
16 | C#CCOc1ccc(C(C)(C)C)cc1C1(c2ccccc2)C(=O)Nc2ccccc21 (stereo not shown) [Sd123, 3-[5-tert-butyl-2-(prop-2-yn-1-yloxy)phenyl]-3-phenylindol-2-one] | > 20 µM | – | 17.5 ± 2 µM | > 20 µM | – | 5.1 ± 1.65 | – | – | –
17 | CC(=O)OCCOc1ccc(C(C)(C)C)cc1C1(c2cc(C(C)(C)C)ccc2OCCOC(C)=O)C(=O)Nc2ccccc21 [HY184] | > 20 µM | – | 2 µM | 2 µM | – | 2.07 ± 1.6 | – | – | –
18 | Cc1cc(C2(c3cc(C(C)(C)C)ccc3O)C(=O)Nc3ccccc32)ccc1Cl (stereo not shown) [HY017, 3-(5-tert-Butyl-2-Hydroxyphenyl)-3-(4-Chloro-3-Methylphenyl)Indolin-2-One] | 4.3 ± 1 µM | 0.65 ± 0.7 | 2.9 ± 0.1 µM | 2.9 ± 0.1 µM | – | – | – | – | –
19 | CC(C)(C)c1ccc(O)c(C2(c3ccccc3)C(=O)Nc3ccc(I)cc32)c1 (stereo not shown) [Sd223] | 14.9 ± 3.8 µM | 7.2 ± 1.2 | 3.5 µM | 2.8 ± 0.2 µM | – | – | – | – | –
20 | O=C1Nc2ccccc2C1(c1ccccc1)c1cc(C2CCCC2)ccc1O (stereo not shown) [Compound 1289, reference compound] | 16 ± 2.2 µM | 2.87 ± 2.19 | 3.2 ± 1 µM | 2.5 ± 0.3 µM | – | – | – | – | –
21 | CN(C)CCOc1ccc(C(C)(C)C)cc1C1(c2cc(C(C)(C)C)ccc2O)C(=O)Nc2ccccc21 (stereo not shown) [HY077] | 1.7 ± 0.9 µM | – | 1.9 ± 1 µM | 1.2 ± 0.4 µM | 4.65 ± 0.88 | – | – | – | –
22 | CC(C)(C)c1ccc(OCCOC2OC(CO)C(O)C(O)C2O)c(C2(c3cc(C(C)(C)C)ccc3OCCOC3OC(CO)C(O)C(O)C3O)C(=O)Nc3ccccc32)c1 (stereo not shown) [HY190] | > 20 µM | – | > 20 µM | > 20 µM | – | – | – | – | –
